The target of the assay is T1, 15LOX2 (Homo sapiens, UniProt O15296).
T1 sequence (O15296 1-676): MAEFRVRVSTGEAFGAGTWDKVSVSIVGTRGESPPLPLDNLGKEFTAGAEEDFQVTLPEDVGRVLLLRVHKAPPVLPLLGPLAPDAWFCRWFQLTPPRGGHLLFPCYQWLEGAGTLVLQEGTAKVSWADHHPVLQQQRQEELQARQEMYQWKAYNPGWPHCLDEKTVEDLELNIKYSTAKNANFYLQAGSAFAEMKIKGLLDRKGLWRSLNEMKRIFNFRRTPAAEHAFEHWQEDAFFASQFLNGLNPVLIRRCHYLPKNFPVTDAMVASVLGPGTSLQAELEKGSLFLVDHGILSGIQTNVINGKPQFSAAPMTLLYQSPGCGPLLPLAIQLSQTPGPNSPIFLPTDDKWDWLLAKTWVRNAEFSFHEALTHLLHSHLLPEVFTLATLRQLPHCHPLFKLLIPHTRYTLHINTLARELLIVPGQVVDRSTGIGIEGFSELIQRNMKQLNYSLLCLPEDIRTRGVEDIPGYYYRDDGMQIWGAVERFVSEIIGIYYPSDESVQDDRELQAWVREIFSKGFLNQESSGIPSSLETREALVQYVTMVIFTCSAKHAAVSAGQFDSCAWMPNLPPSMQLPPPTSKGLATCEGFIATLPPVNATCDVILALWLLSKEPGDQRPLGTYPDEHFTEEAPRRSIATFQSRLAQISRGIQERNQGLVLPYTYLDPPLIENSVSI
T1 sequence (P30086 2-187 partner): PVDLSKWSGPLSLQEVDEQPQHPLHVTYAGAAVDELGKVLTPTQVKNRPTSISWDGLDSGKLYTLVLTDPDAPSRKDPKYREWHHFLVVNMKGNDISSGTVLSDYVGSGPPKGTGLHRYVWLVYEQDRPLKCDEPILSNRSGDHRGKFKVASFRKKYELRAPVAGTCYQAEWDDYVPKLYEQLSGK
It is filed as biochemical.

The compound `CCOC(=O)c1ccc(NC2CCCCC2)c(N)c1` [Fer-1, Ferrostatin-1] registered a half-inhibitory concentration (IC50) of 10.1 nM.

For the origin of these results see publication PMC7596334 (Redox Biology, 2020).
